Measured values taken from patent publication US20220296541A1, “N-PALMITOYL-ETHANOLAMIDE FOR USE IN THE PREVENTION OF COLORECTAL CARCINOMA” (priority 2021, published 2022).

Columns and labels:
[1] = tested on: cyclic-dependent kinase 1 (CDK1); experiment: Gene expression of CDK1 by Real-Time PCR in HCT116 cells; type: cell-based, human; conditions: 30 μM for 24 h (FIG. 3C)
Description: (§1) For the in vitro experiments, immortalized human colon cancer (HCT116) and human colorectal adenocarcinoma cell lines (Caco-2) and immortalized healthy human colon epithelial cells (HCEC) were cultured in DMEM growth medium (Sigma Aldrich) supplemented with 10% serum bovine fetal (FBS, Sigma Aldrich) and kept at 37° C. in an incubator with a 5% CO2 atmosphere.
(§2) The expression of the CDK1 and CYCLIN B1 genes was evaluated by virtue of the quantitative Real-Time PCR method using specific primers.

[2] = tested on: AOM-induced ACF, polyps and tumors; experiment: AOM mouse model of colon cancer; type: in vivo, male CD1 mice; conditions: 10 mg/kg per os three times a week for 13 weeks, starting the week before first AOM
Description: The in vivo study was conducted on six-week-old (25-30 g) male CD1 mice fed ad libitum and housed in cages with a controlled sleep/wake cycle. Before the start of the experimentation, the animals were subjected to an acclimatization period of 1 week considering all the experimental procedures and protocols, compliant with the principles of the care of laboratory animals approved by the Italian Ministry of Health and respecting the ARRIVE guidelines [Curtis M J et al. Experimental design and analysis and their reporting II: updated and simplified guidance for authors and peer reviewers. […] The animals were chemically treated with AOM (azoxymethane, 40 mg/kg in total) [Neufert C et al. An inducible mouse model of colon carcinogenesis for the analysis of sporadic and inflammation-driven tumor progression. […] A single dose of AOM was injected intraperitoneally at a concentration of 10 mg/kg at the beginning of the first, second, third and fourth weeks of the experiment [Pagano E et al. Pharmacological inhibition of MAGL attenuates experimental colon carcinogenesis, Pharmacol Res 2017; 119: 227-236]. […] The animals were euthanized 12 weeks after the first AOM injection and the colorectal area was collected. […] The detection and quantification of ACF, polyps and colorectal tumors was performed following the protocol of Pagano E et al. Pharmacological inhibition of MAGL attenuates experimental colon carcinogenesis, Pharmacol Res 2017; 119: 227-236.

[3] = tested on: HCT116 cells; experiment: BrdU proliferation ELISA, HCT116 cells; type: cell-based, human; conditions: 1-30 μM, 24 hours of exposure (FIG. 2A)
Description: as §1
(§3) To assess viability, the cells are stained with Trypan blue while cell proliferation, in the presence or absence of ultra-micronized PEA (1-30 μM), was determined using the BrdU proliferation ELISA kit (Roche, Milan, Italy).

[4] = tested on: healthy human colon epithelial cells HCEC; experiment: BrdU proliferation ELISA, healthy colon epithelial cells HCEC; type: cell-based; conditions: 24 h (FIG. 2C)
Description: as §1, §3

[5] = tested on: HCT116 cells; experiment: Cell cycle analysis by flow cytometry (BrdU/7-AAD) of HCT116 cells; type: cell-based, human; conditions: 30 μM for 24 h (FIG. 3A)
Description: as §1
The cell cycle analysis of HCT116 cells was performed following the protocol reported in the BD Pharmingen™ BrdU Flow Kit (BD Biosciences, USA). For the study, 1.5×10^5 cells was sown on 6-well plates and kept overnight in serum-free medium in the presence or absence of ultra-micronized PEA (30μM) for 24 h. The cells were detected with the BriCyte flow cytometer (Mindray, Italy) according to the BrdU (bromodeoxyuridine) and 7-AAD (7-aminoactinomycin D) content thereof. The data obtained were analyzed with FlowJo v10 software (tree Star, USA) to understand the distribution of HCT116 in the different cell cycle phases.

[6] = tested on: Caco-2 cells; experiment: BrdU proliferation ELISA, Caco-2 cells; type: cell-based, human; conditions: 30 μM, 24 h (FIG. 2B)
Description: as §1, §3

[7] = tested on: cyclin B1; experiment: Gene expression of cyclin B1 by Real-Time PCR in HCT116 cells; type: cell-based, human; conditions: 30 μM for 24 h (FIG. 3B)
Description: as §1, §2

CCCCCCCCCCCCCCCC(=O)NCCO [ultra-micronized PEA, palmitoylethanolamide]
expression of CDK1 [1]: increased expression | number of pre-neoplastic ACF lesions ([2]; vs AOM alone (FIG. 4A)): significantly reduces | number of polyps ([2]; vs AOM alone (FIG. 4B)): strong tendency to also reduce | total number of tumors ([2]; vs AOM alone (FIG. 4C)): significantly reduces | proliferation rate of HCT116 cells [3]: reduces the proliferation rate | proliferation rate of the healthy epithelial cell line HCEC [4]: did not affect the proliferation rate | cell cycle arrest in the G2/M phase [5]: blocking neoplastic cells in the G2/M phase | percentage of cells in the S phase [5]: significant reduction | proliferation of non-metastatic Caco-2 cells [6]: significantly reducing the proliferation | expression of cyclin B1 [7]: increased expression
